Measured values taken from patent publication US20030187003A1, “Pharmaceutical compositions and method for the treatment of retroviral infections” (priority 2000, published 2003).
Read-outs that look alike come from different tables or passages of the source.

Experiments:
IN = IN (Human immunodeficiency virus type 1 group M subtype B, UniProt P04585); settings: background section; read-out: IC50 inhibition of IN; cited from earlier work
[1] = test system: HIV-1-derived vectors pseudotyped with the VSV-G envelope; experiment: microbe, parasite or virus in culture; format: cell-based; settings: Human immunodeficiency virus 1, HEK-293T, read-out: EC50 inhibition of lentiviral transduction
HIV-2 (EHO) = experiment: inhibition of virus-induced cytopathicity in MT-4 cells, HIV-2 (EHO); format: cell-based; settings: for EC50: Human immunodeficiency virus 2, MT4, 120 h, read-out: EC50 HIV-2 EHO
HIV-1(IIIB) = experiment: inhibition of virus-induced cytopathicity in MT-4 cells, HIV-1 (IIIB); format: cell-based; settings: for EC50: Human immunodeficiency virus 1, IIIB, MT4, 120 h, MT-4 cells, viral cytopathic effect, 5 days post-infection; for activity against the replication of HIV-1(IIIB): in words
SIV (MAC251) = experiment: inhibition of virus-induced cytopathicity in MT-4 cells, SIV (MAC251); format: cell-based, Simian immunodeficiency virus; settings: for EC50: Simian immunodeficiency virus, MT4, 120 h, read-out: EC50 SIV MAC251
[2] = cytotoxicity, viability of mock-infected cells; format: cell-based; settings: human, viability of mock-infected MT-4 cells
Experimental: Cytotoxicity of these compounds was determined in parallel by measuring the viability of mock-infected MT-4 or C8166 cells 5 days post-infection. The antiviral activity and cytotoxicity data, including average values and standard deviations for at least two separate experiments, are depicted in Table 2, wherein: CC50 represents the 50% cytotoxic concentration, i.e. the concentration that reduces by 50% the viability of MT-4 cells.

HIV-2 (ROD) = experiment: inhibition of virus-induced cytopathicity in MT-4 cells, HIV-2 (ROD); format: cell-based; settings: for EC50: Human immunodeficiency virus 2, MT4, 120 h, read-out: EC50 HIV-2 ROD
[3] = molecular target: T1, recombinant His-tagged HIV-1 integrase (Human immunodeficiency virus type 1 group M subtype B, UniProt P04585); experiment: HIV-1 integrase overall integration assay, oligonucleotide-based; settings: for inhibition of the overall integration reaction: in words
Experimental: (§1) Reactions were started by the addition of the enzyme. Inhibitors were incubated shortly with the reaction components before the addition of integrase. Reactions were allowed to proceed at 37° C. for 7 minutes and stopped by the addition of formamide loading buffer (95% formamide, 30 mM ethylenediamine tetraacetic acid, 0.1% xylene cyanol, 0.1% bromophenol blue, 0.1% sodium dilaurylsulfate SDS). In the overall integration assay, this reaction was allowed to proceed for 60 minutes before the addition of a formamide dye.

[4] = molecular target: T1, recombinant His-tagged HIV-1 integrase; experiment: HIV-1 integrase 3′-processing assay, oligonucleotide-based; settings: for inhibition of the 3-processing reaction: in words
Experimental: as §1

HIV-1 L1 = experiment: inhibition of virus-induced cytopathicity in MT-4 cells, HIV-1 clinical isolate L1; format: cell-based; settings: Human immunodeficiency virus 1, MT4, 120 h, read-out: EC50 HIV-1 L1
[5] = molecular target: T1, recombinant His-tagged HIV-1 integrase; experiment: HIV-1 integrase strand transfer assay, oligonucleotide-based
[6] = molecular target: T2, Recombinant HIV-1 RT (HXB2) (Human immunodeficiency virus type 1 group M subtype B, UniProt P04585); experiment: inhibition of HIV-1 reverse transcriptase enzymatic activity; format: biochemical
T2 construct: Recombinant HIV-1 RT (HXB2) was obtained as described by Jonckheere et al; made in house
Text: Poly(rC).oligo(dG) and poly (rA).oligo(dT) were used as template-primers, and 8-[^3H]-dGTP and [^3H]-dTTP were used as radiolabelled substrates.

HIV-1 L2 = format: cell-based
HIV-1 L6 = format: cell-based; settings: L6 versus wild type strain L1
HIV-1 L4 = format: cell-based
[7] = MT-4 cells, viral cytopathic effect, 5 days post-infection
[8] = IC50 Poly(A).oligo(dT), template-primer poly(A).oligo(dT)
[9] = IC50 poly(C).oligo(dG), template-primer poly(C).oligo(dG)

Compound | EC50 (HIV-2 (EHO); [7]) | EC50 (HIV-1(IIIB)) | EC50 (SIV (MAC251); [7]) | CC50 at 5 days [2] | EC50 (HIV-2 (ROD); [7]) | IC50 [3] | IC50 [4] | EC50 (HIV-1 L1; [7]) | other results
[N-]=[N+]=Nc1cn([C@H]2C[C@H](N=[N+]=[N-])[C@@H](COP(=O)(O)O)O2)c(=O)[nH]c1=O [5-N3-AZUMP, 3′,5-diazido-2′,3′-dideoxyuridine 5′-monophosphate] |  |  |  |  |  |  |  |  | IC50 (IN): 150 µM
Cc1cn([C@H]2C[C@H](N=[N+]=[N-])[C@@H](CO)O2)c(=O)[nH]c1=O [AZT, reference compound] |  |  |  |  |  |  |  |  | EC50 [1]: 0.049 µM
Oc1nc(O)c2c(n1)Oc1nc(O)nc(O)c1C2c1ccc(I)cc1 [A] | > 276 µM | > 276 µM | > 276 µM | > 276 µM | > 276 µM | > 207 µM | > 207 µM | > 276 µM | 
Clc1nc(Cl)c2c(n1)Oc1nc(Cl)nc(Cl)c1C2c1ccccc1 [B] | > 17.5 µM | > 17.5 µM | > 17.5 µM | 17.5 µM | > 17.5 µM | 25 ± 4.5 µM | 74 ± 38.5 µM | > 17.5 µM | 
Oc1nc(O)c2c(n1)Oc1nc(O)nc(O)c1C2c1ccccc1 [C] |  | 170 ± 45 µM |  | > 383 µM |  | 34.6 ± 11.3 µM | 22.4 ± 6.4 µM |  | EC50 (HIV-2 (EHO)): 169 ± 27 µM; IC50 [5]: 782 ± 242 µM; activity against the replication of HIV-1(IIIB) (HIV-1(IIIB)): active; EC50 (SIV (MAC251)): 194 µM; IC50 [6, 8]: 33.1 ± 15.1 µM; IC50 [6, 9]: 15.1 ± 5.9 µM; EC50 (HIV-2 (ROD)): > 383 µM; inhibition of the overall integration reaction [3]: inhibited; inhibition of the 3-processing reaction [4]: inhibited; EC50 (HIV-1 L1): 116 ± 30 µM
COc1nc(O)nc2c1C(c1ccc([N+](=O)[O-])cc1)c1c(OC)nc(O)nc1O2 [D] | > 313 µM | > 313 µM | > 313 µM | > 313 µM | > 313 µM | > 250 µM | > 250 µM | > 313 µM | 
Oc1nc(O)c2c(n1)Oc1nc(O)nc(O)c1C2c1ccc(Br)cc1 [E] |  | 273 ± 38 µM |  | > 309 µM |  | 298 ± 7.7 µM | 208 ± 82.2 µM |  | EC50 (HIV-2 (EHO)): > 309 µM; IC50 [5]: > 1240 µM; activity against the replication of HIV-1(IIIB) (HIV-1(IIIB)): active; EC50 (SIV (MAC251)): > 309 µM; IC50 [6, 8]: > 494 µM; IC50 [6, 9]: > 494 µM; EC50 (HIV-2 (ROD)): > 309 µM; inhibition of the overall integration reaction [3]: inhibited; inhibition of the 3-processing reaction [4]: inhibited; EC50 (HIV-1 L1): > 309 µM
Oc1nc(O)c2c(n1)Oc1nc(O)nc(O)c1C2c1ccc(Cl)cc1 [F] | > 347 µM | > 347 µM | > 347 µM | > 347 µM | > 347 µM | 97.1 ± 93.8 µM | 144 ± 81.3 µM | > 347 µM | 
Oc1nc(S)nc2c1C(c1ccc(Cl)cc1)c1c(O)nc(S)nc1O2 [G] |  | 56.8 ± 30 µM |  | 137 µM |  | 1 ± 0.4 µM | 0.9 ± 0.5 µM |  | EC50 (HIV-2 (EHO)): > 137 µM; IC50 [5]: 201 ± 120 µM; activity against the replication of HIV-1(IIIB) (HIV-1(IIIB)): active; EC50 (HIV-1 L2; Human immunodeficiency virus 1): 95.6 ± 6.5 µM; fold increase in EC50 (HIV-1 L2; L2 versus wild type strain L1): 0.9; EC50 (SIV (MAC251)): 100 µM; fold increase in EC50 (HIV-1 L6): 1.8; IC50 [6, 8]: 35.2 ± 0.4 µM; IC50 [6, 9]: 25.8 ± 15.9 µM; EC50 (HIV-2 (ROD)): > 137 µM; EC50 (HIV-1 L4; Human immunodeficiency virus 1): 163 ± 3.7 µM; fold increase in EC50 (HIV-1 L4; L4 versus wild type strain L1): 1.6; inhibition of the overall integration reaction [3]: inhibited; inhibition of the 3-processing reaction [4]: inhibited; EC50 (HIV-1 L1): 101 ± 32 µM
Cc1ccnc2c1NC(=O)c1cccnc1N2C1CC1 [nevirapine, reference compound] | > 97.6 µM | 0.04 µM | > 97.6 µM | > 97.6 µM | > 97.6 µM |  |  | 0.06 ± 0.01 µM | activity against the replication of HIV-2 (EHO) (HIV-2 (EHO); at 98 μM in MT-4 cells): inactive; activity against the replication of SIV (MAC251) (SIV (MAC251); at 98 μM in MT-4 cells): inactive; activity against the replication of HIV-2 (ROD) (HIV-2 (ROD); at 98 μM in MT-4 cells): inactive
Dextran sulfate [reference compound] |  |  |  |  |  |  |  |  | IC50 ([6]; template-primer poly(A).oligo(dT), read-out: IC50 Poly(A).oligo(dT)): 22 ± 8.8 µM; IC50 ([6]; template-primer poly(C).oligo(dG), read-out: IC50 poly(C).oligo(dG)): 7.3 ± 3.2 µM
